What was measured:
Settings in all cases: 72 h
Caco-2 [1] = assay: cell viability relative to DMSO; higher = less toxic
Calu-3 [2] = assay: as above
HepG2 [3] = assay: as above
U2OS [4] = assay: as above
Vero E6 [5] = assay: as above
Caco-2 [6] = assay: relative viability EC50 (midpoint between 100% and the lowest measured viability); higher = less toxic
HepG2 [7] = assay: as above
U2OS [8] = assay: as above
Vero E6 [9] = assay: as above
Caco-2 [10] = assay: drug sensitivity score (DSS) for viability; higher = more toxic; extreme values may be limits of the assay
Calu-3 [11] = assay: as above
HepG2 [12] = assay: as above
U2OS [13] = assay: as above
Vero E6 [14] = assay: as above
Calu-3 [15] = assay: relative viability EC50 (midpoint between 100% and the lowest measured viability); higher = less toxic

Row | SMILES | cell viability (Caco-2 [1]; 1 nM) | cell viability (Caco-2 [1]; 10 nM) | cell viability (Caco-2 [1]; 100 nM) | cell viability (Caco-2 [1]; 1000 nM) | cell viability (Caco-2 [1]; 10000 nM) | cell viability (Calu-3 [2]; 1 nM) | cell viability (Calu-3 [2]; 10 nM) | cell viability (Calu-3 [2]; 100 nM) | cell viability (Calu-3 [2]; 1000 nM) | cell viability (Calu-3 [2]; 10000 nM) | cell viability (HepG2 [3]; 1 nM) | cell viability (HepG2 [3]; 10 nM) | cell viability (HepG2 [3]; 100 nM) | cell viability (HepG2 [3]; 1000 nM) | cell viability (HepG2 [3]; 10000 nM) | cell viability (U2OS [4]; 1 nM) | cell viability (U2OS [4]; 10 nM) | cell viability (U2OS [4]; 100 nM) | cell viability (U2OS [4]; 1000 nM) | cell viability (U2OS [4]; 10000 nM) | cell viability (Vero E6 [5]; 1 nM) | cell viability (Vero E6 [5]; 10 nM) | cell viability (Vero E6 [5]; 100 nM) | cell viability (Vero E6 [5]; 1000 nM) | cell viability (Vero E6 [5]; 10000 nM) | relative viability EC50 (Caco-2 [6]) | relative viability EC50 (HepG2 [7]) | relative viability EC50 (U2OS [8]) | relative viability EC50 (Vero E6 [9]) | drug sensitivity score (Caco-2 [10]) | drug sensitivity score (Calu-3 [11]) | drug sensitivity score (HepG2 [12]) | drug sensitivity score (U2OS [13]) | drug sensitivity score (Vero E6 [14]) | relative viability EC50 (Calu-3 [15])
1 | CNC(=O)[C@H](Cc1ccccc1)NC(=O)[C@H](CC(C)C)[C@H](CSc1cccs1)C(=O)NO [batimastat] | 94.1% | 105% | 92.8% | 94.2% | 85% | 92.9% | 96.2% | 89.4% | 82.9% | 65.5% | 98.2% | 95.6% | 99% | 90.9% | 93.6% | 94.3% | 105% | 97% | 98.4% | 90.1% | 93.4% | 97.7% | 92.3% | 84.4% | 83.8% | > 10 µM | > 10 µM | > 10 µM | > 10 µM | 0.3 | 3.8 | 0 | 0 | 1.4 | 
2 | COC(=O)c1cc(OC)c2c(c1-c1c(CO)cc(OC)c3c1OCO3)OCO2 [bicyclol] | 89.9% | 98.7% | 104% | 101% | 101% |  |  |  |  |  | 90.5% | 97.8% | 92.1% | 108% | 100% | 101% | 97.6% | 97.8% | 98.2% | 94.8% | 108% | 105% | 104% | 99.9% | 100% | > 10 µM | > 10 µM | > 10 µM | > 10 µM | 0 |  | 0 | 0 | 0 | 
3 | Nc1nc(=O)c(Br)c(-c2ccccc2)[nH]1 [bropirimine] | 96.6% | 91.4% | 102% | 87.8% | 112% |  |  |  |  |  | 102% | 118% | 92.4% | 103% | 114% | 92.8% | 95.1% | 102% | 95.7% | 104% | 94.8% | 98.3% | 92.4% | 98.7% | 102% | > 10 µM | > 10 µM | > 10 µM | > 10 µM | 0 |  | 0 | 0 | 0 | 
4 | CCC(=O)O[C@]1(C(=O)CCl)[C@@H](C)C[C@H]2[C@@H]3CCC4=CC(=O)C=C[C@]4(C)[C@@]3(F)[C@@H](O)C[C@@]21C [clobetasol-propionate] |  |  |  |  |  | 91.5% | 96% | 82.2% | 94% | 89.7% | 107% | 105% | 94.5% | 99.4% | 77.8% | 95.7% | 95.7% | 93.1% | 90.7% | 91.2% | 99.6% | 96.5% | 107% | 93.4% | 95.2% |  | > 10 µM | > 10 µM | > 10 µM |  | 0 | 0.8 | 0 | 0 | > 10 µM
5 | NP(N)(=O)NC(=O)c1ccc(F)cc1 [flurofamide] | 95.9% | 96.4% | 90.9% | 94.7% | 91% |  |  |  |  |  | 101% | 98.6% | 90.1% | 95% | 103% | 100% | 102% | 97.3% | 99.4% | 96% | 103% | 102% | 103% | 97.6% | 102% | > 10 µM | > 10 µM | > 10 µM | > 10 µM | 0 |  | 0 | 0 | 0 | 
6 | Clc1ccc(C(Cn2ccnc2)OCc2c(Cl)cccc2Cl)c(Cl)c1 (stereo unspecified) [isoconazole] | 97% | 96.4% | 96.8% | 100% | 71.7% | 95.8% | 97.9% | 105% | 98.5% | 84.2% |  |  |  |  |  | 104% | 103% | 122% | 110% | 92% | 102% | 101% | 97.7% | 95.7% | 101% |  |  | > 10 µM | > 10 µM | 1.2 | 0.4 |  | 0 | 0 | > 10 µM
7 | O=[N+]([O-])O[C@@H]1CO[C@H]2[C@@H]1OC[C@@H]2O [isosorbide-mononitrate] | 100% | 111% | 94.4% | 117% | 114% |  |  |  |  |  | 101% | 108% | 91.2% | 98.7% | 93.3% | 96.5% | 96.8% | 93.5% | 96.7% | 97.2% | 103% | 103% | 101% | 104% | 94.4% | > 10 µM | > 10 µM | > 10 µM | > 10 µM | 0 |  | 0 | 0 | 0 | 
8 | O=c1c(O)c(-c2ccc(O)cc2)oc2cc(O)cc(O)c12 [kaempferol] | 98.5% | 99.9% | 97.5% | 95.9% | 82.4% |  |  |  |  |  | 93.8% | 86.9% | 106% | 97.5% | 94.1% | 98.2% | 99.6% | 97% | 96.7% | 101% | 101% | 104% | 98.5% | 102% | 103% | > 10 µM | > 10 µM | > 10 µM | > 10 µM | 0.9 |  | 0 | 0 | 0 | 
9 | COC(=O)Nc1nc2cc(SC(C)C)ccc2[nH]1 [methiazole] | 104% | 100% | 99.1% | 86.8% | 49% | 95.5% | 97% | 103% | 81.6% | 64.6% | 95% | 105% | 95.7% | 83.4% | 35% | 101% | 97.6% | 99.9% | 86.4% | 41.1% | 91.9% | 103% | 92.6% | 86.6% | 47.5% | 1.52 µM | 1.53 µM | 1.62 µM | 1.61 µM | 4.8 | 4 | 6.1 | 5.4 | 4.7 | 
10 | CO/N=C1\C[C@]2(C[C@@H]3C[C@@H](C/C=C(\C)C[C@@H](C)/C=C/C=C4\CO[C@@H]5[C@H](O)C(C)=C[C@@H](C(=O)O3)[C@]45O)O2)O[C@H](/C(C)=C/C(C)C)[C@H]1C [moxidectin] | 95.3% | 94% | 102% | 88.2% | 62.1% | 90.7% | 97.3% | 94.2% | 103% | 89.8% | 101% | 106% | 102% | 105% | 96.7% | 103% | 92.1% | 93.5% | 94.6% | 94.7% | 96.4% | 96.9% | 88.7% | 96.4% | 101% |  | > 10 µM | > 10 µM | > 10 µM | 3.6 | 0 | 0 | 0 | 0 | > 10 µM
11 | C#C[C@]1(OC(C)=O)CC[C@H]2[C@@H]3CCC4=CC(=O)CC[C@@H]4[C@H]3CC[C@@]21C [norethindrone-acetate] | 91.8% | 97.1% | 84.7% | 95% | 70.4% | 93.2% | 82.9% | 90.8% | 104% | 95.6% |  |  |  |  |  | 100% | 99.6% | 98.5% | 98.5% | 94.9% | 104% | 108% | 110% | 90.5% | 98.1% |  |  | > 10 µM | > 10 µM | 2.3 | 0 |  | 0 | 0 | > 10 µM
12 | CCOc1ccc(C(=O)OCCN(CC)CC)cc1 [parethoxycaine] | 97.1% | 85.1% | 95.6% | 93.7% | 104% |  |  |  |  |  | 98.6% | 116% | 106% | 108% | 102% | 101% | 92.8% | 103% | 98.1% | 98.8% | 94.6% | 95.6% | 92.3% | 97.5% | 111% | > 10 µM | > 10 µM | > 10 µM | > 10 µM | 0 |  | 0 | 0 | 0 | 
13 | C=C(C)[C@@H]1CC=C(CO)CC1 [perillyl-alcohol] | 99% | 99.6% | 102% | 102% | 98.6% |  |  |  |  |  | 101% | 93.2% | 108% | 94.5% | 92.9% | 105% | 98.2% | 98.8% | 95.6% | 98.5% | 98% | 102% | 98% | 95.5% | 96% | > 10 µM | > 10 µM | > 10 µM | > 10 µM | 0 |  | 0 | 0 | 0 | 
14 | CN(N=O)C(=O)N[C@@H](C=O)[C@@H](O)[C@H](O)[C@H](O)CO [streptozotocin] | 106% | 82.3% | 79.9% | 85.2% | 96.2% |  |  |  |  |  | 98.3% | 90.7% | 104% | 101% | 101% | 106% | 97.5% | 100% | 102% | 103% | 98.5% | 98.1% | 98.4% | 96.7% | 92.6% | > 10 µM | > 10 µM | > 10 µM | > 10 µM | 1 |  | 0 | 0 | 0 | 
15 | COC[C@H]1OC(=O)c2coc3c2[C@@]1(C)C1=C(C3=O)[C@@H]2CCC(=O)[C@@]2(C)C[C@H]1OC(C)=O [wortmannin] | 102% | 99.3% | 88.2% | 58.3% | 40.8% | 93.8% | 90.6% | 82.7% | 69.5% | 51.4% | 98.4% | 97.4% | 98.2% | 98.2% | 86.7% | 95.1% | 99.3% | 94.1% | 91.1% | 65.1% | 106% | 103% | 97.3% | 88.9% | 76.8% | 0.409 µM | > 10 µM |  | > 10 µM | 9.1 | 7.9 | 0.3 | 2.8 | 1.7 | 
